Data from ChEMBL document CHEMBL1201862, “PubChem BioAssay data set” (2004).
Activity calls are given as the source filed them.

Columns and labels:
[1] = inhibitors of clade B AD8 Env fusion, dose response, cell-based, cherry-pick (AID 652062); format: functional;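 further: luciferase signal from cell-cell fusion driven by HIV-1 clade B AD8 Env; potency is for inhibitors of fusion seen as a drop in luminescence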
[2] = ZM109 Env clade C HIV-1 fusion inhibitors, dose response, HeLa effector, CEM target cells, luciferase, cherry-pick (AID 652058); format: functional, cell-based
[3] = inhibitors of HIV Env-driven cell fusion, dose response, cherry-pick (AID 652057); format: functional, cell-based
[4] = off-target signal loss in HeLa-CEM21 co-culture – HeLa F-luc CTL cells, cherry-picked, counter-screen for HIV-1 Env fusion inhibitor project, dose response (AID 652040); format: functional, cell-based;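 further: potency for signal decrease marking cytotoxic or nonspecific inhibition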
[5] = target: T1, DNA repair protein RAD52 homolog (Homo sapiens, UniProt P43351); format: functional, biochemical
T1 sequence (P43351 whole entry): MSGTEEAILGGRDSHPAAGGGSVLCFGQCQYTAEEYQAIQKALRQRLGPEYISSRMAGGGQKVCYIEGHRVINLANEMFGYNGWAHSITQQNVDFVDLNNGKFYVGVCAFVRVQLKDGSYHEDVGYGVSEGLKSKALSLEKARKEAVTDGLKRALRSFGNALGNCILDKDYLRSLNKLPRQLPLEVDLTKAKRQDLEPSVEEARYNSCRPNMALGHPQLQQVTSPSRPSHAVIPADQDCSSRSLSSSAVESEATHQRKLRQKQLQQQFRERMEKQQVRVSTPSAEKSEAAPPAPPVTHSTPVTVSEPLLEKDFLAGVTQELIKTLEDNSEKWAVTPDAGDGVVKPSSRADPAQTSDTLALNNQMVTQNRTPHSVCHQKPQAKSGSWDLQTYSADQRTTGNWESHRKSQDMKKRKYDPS

[6] = target: T2, Polyadenylate-binding protein 1 (Homo sapiens, UniProt P11940); test: PABP1 MLLE–PAM2 binding inhibitor potency, dose response, biochemical, fluorescence polarization, FITC-PAM2 peptide (AID 602259); format: functional; conditions: read-out: IC50_Mean
T2 sequence (P11940 whole entry): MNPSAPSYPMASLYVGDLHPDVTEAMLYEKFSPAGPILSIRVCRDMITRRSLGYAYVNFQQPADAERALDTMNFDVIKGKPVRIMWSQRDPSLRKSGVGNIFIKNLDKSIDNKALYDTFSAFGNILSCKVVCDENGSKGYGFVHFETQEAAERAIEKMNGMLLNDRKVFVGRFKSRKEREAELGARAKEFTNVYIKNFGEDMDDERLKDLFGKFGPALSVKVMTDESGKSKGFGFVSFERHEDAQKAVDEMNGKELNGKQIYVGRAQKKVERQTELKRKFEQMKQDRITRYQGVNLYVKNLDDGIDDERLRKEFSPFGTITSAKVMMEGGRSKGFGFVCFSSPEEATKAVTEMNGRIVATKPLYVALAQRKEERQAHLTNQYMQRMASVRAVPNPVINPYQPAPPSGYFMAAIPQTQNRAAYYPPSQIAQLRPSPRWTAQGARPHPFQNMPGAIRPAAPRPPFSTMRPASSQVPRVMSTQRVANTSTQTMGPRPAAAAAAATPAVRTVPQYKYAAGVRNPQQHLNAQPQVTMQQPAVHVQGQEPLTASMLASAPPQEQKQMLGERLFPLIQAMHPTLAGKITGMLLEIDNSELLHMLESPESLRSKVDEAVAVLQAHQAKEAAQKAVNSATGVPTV

[7] = target: T2, Polyadenylate-binding protein 1; test: PABP1 MLLE–PAM2 interaction inhibitors, dose response, miRNA deadenylation inhibitor project, biochemical, fluorescence polarization, Cy5-PAM2 peptide, secondary (AID 602260); format: functional; conditions: read-out: IC50_Mean
[8] = cytotoxicity in OVCAR8 ovarian cancer cells, dose response, PAX8 project, cell-based, plate reader, dry powder samples (AID 743197); format: functional; conditions: OVCAR-8
Paired box protein Pax-8 = Paired box protein Pax-8 (Homo sapiens, UniProt Q06710); test: inhibitors of PAX8-driven TPO luciferase reporter, dose response, RMG-I cells, cherry-pick (AID 687027); format: functional, cell-based;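 further: luciferase reporter driven by Pax8 target thyroperoxidase promoter measured by SteadyGlo luminescence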
Sequence of Paired box protein Pax-8 (Q06710 whole entry): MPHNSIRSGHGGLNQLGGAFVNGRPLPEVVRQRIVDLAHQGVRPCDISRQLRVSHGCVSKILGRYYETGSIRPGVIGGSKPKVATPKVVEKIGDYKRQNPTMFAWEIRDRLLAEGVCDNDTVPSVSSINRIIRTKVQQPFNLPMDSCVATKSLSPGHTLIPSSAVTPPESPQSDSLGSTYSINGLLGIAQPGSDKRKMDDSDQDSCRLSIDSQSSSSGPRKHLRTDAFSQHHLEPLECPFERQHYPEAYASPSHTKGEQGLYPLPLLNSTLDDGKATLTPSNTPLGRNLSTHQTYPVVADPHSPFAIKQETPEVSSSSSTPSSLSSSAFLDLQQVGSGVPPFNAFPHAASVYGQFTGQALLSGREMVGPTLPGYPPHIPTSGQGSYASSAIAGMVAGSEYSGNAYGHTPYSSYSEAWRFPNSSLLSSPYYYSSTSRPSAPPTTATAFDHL

HEK293 = test: inhibitors of LMP1-driven NF-kB reporter, dose response, cell-based, HEK293, luciferase, cherry-pick (AID 588343); format: functional; conditions: Homo sapiens
[9] = MC4R antagonists, dose response, counter-screen for LGR2 antagonist project, cell-based, plate reader, cherry pick (AID 743444); format: functional;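 further: transfected HEK 293 cells stimulated with alpha-MSH peptide; potency of inhibitors of the alpha-MSH evoked signal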
[10] = LGR2 antagonists, dose response, cell-based, HEK293, CRE-luciferase reporter, cherry pick, set 2 (AID 743343); format: functional;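 further: transfected cells were stimulated with diluted bursicon conditioned medium after compound addition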
BJ [11] = test: cytotoxicity toward BJ-TERT-LT-ST fibroblasts, dose response, cell-based, RAS-independent, luminescence (AID 1935); format: functional; conditions: Homo sapiens;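 further: BJ fibroblasts immortalized with TERT plus LT and ST oncogenes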
BJ [12] = test: cells; format: functional, cell-based; conditions: Homo sapiens
BJ [13] = test: cytotoxicity toward BJ-TERT fibroblasts, dose response, cell-based, RAS-independent, luminescence (AID 1933); format: functional; conditions: Homo sapiens
[14] = cytotoxicity toward DRD oncogenic fibroblasts, dose response, cell-based, non-viral oncogenic, luminescence (AID 1934); format: functional; conditions: Homo sapiens
[15] = target: Glyceraldehyde-3-phosphate dehydrogenase (Homo sapiens, UniProt P04406)
Sequence of Glyceraldehyde-3-phosphate dehydrogenase (P04406 whole entry): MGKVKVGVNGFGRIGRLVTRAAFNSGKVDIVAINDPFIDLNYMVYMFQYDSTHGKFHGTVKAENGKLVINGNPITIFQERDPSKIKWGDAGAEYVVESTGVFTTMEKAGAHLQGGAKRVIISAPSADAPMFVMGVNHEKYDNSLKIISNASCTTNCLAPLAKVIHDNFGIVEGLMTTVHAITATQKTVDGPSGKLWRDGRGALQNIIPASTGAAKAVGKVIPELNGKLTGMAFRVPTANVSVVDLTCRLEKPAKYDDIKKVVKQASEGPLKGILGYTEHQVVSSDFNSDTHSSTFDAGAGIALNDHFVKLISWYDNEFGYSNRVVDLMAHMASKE

| SMILES | AC50 [1] | AC50 [2] | AC50 [3] | AC50 [4] | further results |
| --- | --- | --- | --- | --- | --- |
| O=C(c1ccc2ncsc2c1)N1CCN(c2nc3ccccc3s2)CC1 | 8.65 µM (active) | 8.38 µM (active) | 4.18 µM (active) | 3.19 µM (active) |  |
| COc1ccc(C(N)=S)c(OC)c1 |  |  |  |  | AC50 [5]: 9.26 µM (active); IC50 [6]: > 66 µM (inactive); IC50 [7]: > 66 µM (inactive) |
| CCN(C[C@H]1N[C@@](C)(C(=O)OC)[C@H]2C(=O)N(Cc3ccccc3)C(=O)[C@@H]12)S(=O)(=O)c1ccc(C)cc1 | 69.3 µM (active) | 15 µM (active) | 5.73 µM (active) | 21.4 µM (active) |  |
| C[C@H]1CN([C@@H](C)CO)C(=O)Cc2cc(NC(=O)Cc3ccccc3)ccc2O[C@H]1CN(C)S(=O)(=O)c1cccs1 | 3.35 µM (active) | 2.26 µM (active) | 1.48 µM (active) | 2.4 µM (active) |  |
| O=C(C[C@H]1C[C@@H]2c3cc(NS(=O)(=O)c4ccc(F)cc4)ccc3O[C@@H]2[C@@H](CO)O1)NCc1ccc(-c2ccccc2)cc1 | 19.4 µM (active) | 9.89 µM (active) | 23.1 µM (active) |  | AC50 [8]: 4 µM (active); AC50 (Paired box protein Pax-8): 7.31 µM (active) |
| O=C(O)c1ccc(N/N=C/c2ccc3ncccc3c2)cc1 |  |  |  |  | AC50 (HEK293): 2.54 µM (active); AC50 [9]: 3.72 µM (active); AC50 [10]: 3.18 µM (active) |
| COc1c(/C=N/Nc2ccc([N+](=O)[O-])cc2[N+](=O)[O-])c(C)nn1-c1ccccc1 |  |  |  |  | EC50 (BJ [11]): > 150 µM (inconclusive); EC50 (BJ [12]): > 150 µM (not active); EC50 (BJ [13]): 7.99 µM (active); EC50 [14]: 15.8 µM (active) |
| O=C(NCCCO)c1cc(-c2ccc(Cl)cc2Cl)n[nH]1 |  |  |  |  | IC50 [15]: > 10 µM (inconclusive) |
